Experimental data: patent US7192949B2, “Substituted bicyclic pyrimidinones as a mitotic kinesin KSP inhibitors” (Merck & Co., Inc., priority 2001, dated 2007)

Molecular target: T1, human KSP motor domain (KSP(367H)) (Homo sapiens, UniProt P52732)
T1 construct: were used to amplify the motor domain and the neck linker region; made in house; host or cells: E. coli BL21 (DE3), pRSETa vector
T1 sequence (P52732 18-359 limits assumed): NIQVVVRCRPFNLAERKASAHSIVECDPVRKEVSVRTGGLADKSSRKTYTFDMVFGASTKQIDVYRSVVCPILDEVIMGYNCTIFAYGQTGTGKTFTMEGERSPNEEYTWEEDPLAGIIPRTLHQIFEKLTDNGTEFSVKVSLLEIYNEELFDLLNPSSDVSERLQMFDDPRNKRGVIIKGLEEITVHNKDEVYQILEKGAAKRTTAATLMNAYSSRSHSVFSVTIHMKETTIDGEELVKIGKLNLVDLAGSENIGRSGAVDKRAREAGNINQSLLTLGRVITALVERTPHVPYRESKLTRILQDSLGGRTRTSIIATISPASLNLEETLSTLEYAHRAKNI
Experiment: Kinesin ATPase In Vitro Assay
Type: biochemical
Settings: kinesin motor domain with microtubules, 1 mM ATP, 23° C.; free phosphate by quinaldine red/ammonium molybdate, absorbance 540 nm
From the text: I. Kinesin ATPase In Vitro Assay
Cloning and Expression of Human Poly-Histidine Tagged KSP Motor Domain (KSP(367H))
Plasmids for the expression of the human KSP motor domain construct were cloned by PCR using a pBluescript full length human KSP construct (Blangy et al., Cell, vol.83, pp 1159–1169, 1995) as a template. The N-terminal primer 5′-[…] (SEQ.ID.NO.: 1) and the C-terminal primer 5′-[…] […] (SEQ.ID.NO.: 2) were used to amplify the motor domain and the neck linker region. The PCR products were digested with AseI and XhoI, ligated into the NdeI/XhoI digestion product of pRSETa (Invitrogen) and transformed into E. coli BL21 (DE3).
Cells were grown at 37° C. to an OD600 of 0.5. […]
The kinesin motor domain is incubated with microtubules, 1 mM ATP (1:1 MgCl2: Na-ATP), and compound at 23° C. in buffer containing 80 mM K-HEPES (pH 7.0), 1 mM EGTA, 1 mM DTT, 1 mM MgCl2, and 50 mM KCl. […] Free phosphate from the ATP hydrolysis reaction is measured via a quinaldine red/ammonium molybdate assay by adding 150 μl of quench C buffer containing a 2:1 ratio of quench A:quench B. Quench A contains 0.1 mg/ml quinaldine red and 0.14% polyvinyl alcohol; quench B contains 12.3 mM ammonium molybdate tetrahydrate in 1.15 M sulfuric acid. The reaction is incubated for 10 minutes at 23° C., and the absorbance of the phospho-molybdate complex is measured at 540 nm.

IC50: ≤ 50 µM
SMILES: CCC(c1nc2c(c(=O)n1Cc1ccccc1)CCC2)N(CCN(C)C)C(=O)c1ccc(Br)cc1 (stereo not shown) [1-5, N-[1-(3-benzyl-4-oxo-4,5,6,7-tetrahydro-3H-cyclopenta[d]pyriinidin-2-yl)propyl]-4-bromo-N-[2-(dimethylamino)ethyl]benzamide]
